Results from patent publication US8883827B2, “Azole derivatives as WTN pathway inhibitors” (Oslo University Hospital HF, priority 2009, dated 2014).

How the values were obtained:
TNF-α pathway = assay: NF-κB-Luciferase reporter in HEK293 cells with rTNF-α; type: cell-based; conditions: 1 or 10 μM, 24 h, 10 ng/ml rTNF-α
From the text: 2) HEK293 cells transiently transfected with a NF-κB-Luciferase reporter (NF-κB-Luc—purchased from Promega).

MST1(h) = target: T1, MST1(h) (Homo sapiens, UniProt Q13043); assay: Kinase screen; type: biochemical; conditions: 0.1% DMSO control = 100%
T1 construct: purchased Millipore (KinaseProfiler service)

CDK7/cyclinH/MAT1(h) = target: T2, CDK7/cyclinH/MAT1(h) (Homo sapiens, UniProt P50613); assay: Kinase screen; type: biochemical; conditions: 0.1% DMSO control = 100%
T2 construct: purchased Millipore (KinaseProfiler service)

SW480 cells = assay: MTS cell growth assay (Example 27); type: cell-based; conditions: Homo sapiens, 72 h, read-out: IC50, reduction of proliferation
Protocol: Thus, the effect of compound No. 1 on cell growth was tested in SW480 cell lines using MTS analysis (MTS is the colorimetric substrate 3-(4,5-dimethylthiazol-2-yl)-5-(3-carboxymethoxyphenyl)-2-(4-sulfophenyl)-2H-tetrazolium).
(§1) 3000 cells were seeded on 96 well plates in quadruplicates for each sample. The following day, cell culture medium was mixed with compound No. 1 in various concentrations or with 0.5% DMSO vehicle (control) and added to the wells.
(§2) Eight wells of seeded control cells, defining incubation time 0 (t0), were incubated with 20 μl substrate in 100 μl phenol-free D-MEM (Invitrogen) for 3 hours, as described in the CellTiter 96® AQueous Non-Radioactive Cell Proliferation Assay (MTS) protocol (Promega). The A490 value was recorded.
(§3) Samples were measured after 72 hours. The following formula was used to determine the single well relative A490 sample values: ((Sample A490−Average A490 to)×100)/(Average A490 0.5% DMSO control−Average A490 t0).

TMDP(h) = target: T3, TMDP(h) (Homo sapiens, UniProt Q9UII6); assay: Phosphatase screen; type: biochemical; conditions: 0.1% DMSO control = 100%
T3 construct: purchased Millipore (KinaseProfiler service)
T3 sequence (Q9UII6 whole entry): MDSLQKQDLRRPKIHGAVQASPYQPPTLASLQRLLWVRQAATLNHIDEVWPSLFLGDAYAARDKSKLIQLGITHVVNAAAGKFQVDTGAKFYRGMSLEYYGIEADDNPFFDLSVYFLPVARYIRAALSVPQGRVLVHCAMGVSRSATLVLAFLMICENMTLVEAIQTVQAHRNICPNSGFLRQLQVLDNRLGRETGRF

ALK(h) = target: T4, ALK(h) (Homo sapiens, UniProt Q9UM73); assay: Kinase screen; type: biochemical; conditions: 0.1% DMSO control = 100%
T4 construct: purchased Millipore (KinaseProfiler service)
T4 sequence (Q9UM73 19-1620): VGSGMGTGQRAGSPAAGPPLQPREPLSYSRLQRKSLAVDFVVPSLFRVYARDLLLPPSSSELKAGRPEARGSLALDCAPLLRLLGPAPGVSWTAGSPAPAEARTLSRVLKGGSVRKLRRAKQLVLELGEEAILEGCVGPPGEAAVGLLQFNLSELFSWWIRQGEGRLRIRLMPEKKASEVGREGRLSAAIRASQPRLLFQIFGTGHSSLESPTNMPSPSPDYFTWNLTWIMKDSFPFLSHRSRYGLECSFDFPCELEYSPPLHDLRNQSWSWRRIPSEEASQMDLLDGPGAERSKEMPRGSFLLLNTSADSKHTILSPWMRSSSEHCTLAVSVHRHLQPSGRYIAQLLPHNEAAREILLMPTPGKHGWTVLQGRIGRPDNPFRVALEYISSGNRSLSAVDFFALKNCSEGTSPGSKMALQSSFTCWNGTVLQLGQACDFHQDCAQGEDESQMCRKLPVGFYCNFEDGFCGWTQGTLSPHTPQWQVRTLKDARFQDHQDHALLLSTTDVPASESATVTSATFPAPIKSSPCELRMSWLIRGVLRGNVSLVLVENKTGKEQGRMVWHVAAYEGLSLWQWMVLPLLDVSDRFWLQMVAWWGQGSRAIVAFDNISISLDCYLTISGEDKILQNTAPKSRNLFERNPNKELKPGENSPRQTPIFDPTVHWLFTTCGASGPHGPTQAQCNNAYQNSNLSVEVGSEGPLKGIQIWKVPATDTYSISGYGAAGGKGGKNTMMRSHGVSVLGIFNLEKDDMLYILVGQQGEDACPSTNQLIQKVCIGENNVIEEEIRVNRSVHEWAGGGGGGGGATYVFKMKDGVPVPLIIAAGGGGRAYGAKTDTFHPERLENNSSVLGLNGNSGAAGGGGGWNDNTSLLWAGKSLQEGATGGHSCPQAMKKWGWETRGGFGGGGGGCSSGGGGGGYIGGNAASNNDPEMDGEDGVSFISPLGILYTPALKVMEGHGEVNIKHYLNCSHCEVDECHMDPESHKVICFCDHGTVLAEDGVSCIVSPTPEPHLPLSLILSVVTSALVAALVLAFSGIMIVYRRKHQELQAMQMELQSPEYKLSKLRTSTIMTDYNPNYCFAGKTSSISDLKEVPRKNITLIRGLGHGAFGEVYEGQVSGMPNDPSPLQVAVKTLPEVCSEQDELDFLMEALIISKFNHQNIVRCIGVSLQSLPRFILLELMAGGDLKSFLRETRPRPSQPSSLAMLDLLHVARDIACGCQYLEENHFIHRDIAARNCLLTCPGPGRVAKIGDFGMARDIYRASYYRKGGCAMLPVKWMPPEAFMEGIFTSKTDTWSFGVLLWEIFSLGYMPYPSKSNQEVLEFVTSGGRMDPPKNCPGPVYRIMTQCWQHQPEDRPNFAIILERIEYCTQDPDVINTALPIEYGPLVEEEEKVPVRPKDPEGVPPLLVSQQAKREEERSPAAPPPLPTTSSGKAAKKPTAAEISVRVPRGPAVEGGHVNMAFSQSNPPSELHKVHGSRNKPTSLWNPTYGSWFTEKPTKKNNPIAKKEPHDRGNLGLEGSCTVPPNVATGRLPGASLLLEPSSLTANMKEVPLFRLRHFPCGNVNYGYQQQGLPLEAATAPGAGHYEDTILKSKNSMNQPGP

PRAK(h) = target: T5, PRAK(h) (Homo sapiens, UniProt Q8IW41); assay: Kinase screen; type: biochemical; conditions: 0.1% DMSO control = 100%
T5 construct: purchased Millipore (KinaseProfiler service)

CaMKI(h) = target: T6, CaMKI(h) (Homo sapiens, UniProt Q14012); assay: Kinase screen; type: biochemical; conditions: 0.1% DMSO control = 100%
T6 construct: purchased Millipore (KinaseProfiler service)

PKBα(h) = target: T7, PKBα(h) (Homo sapiens, UniProt P31749); assay: Kinase screen; type: biochemical; conditions: 0.1% DMSO control = 100%
T7 construct: purchased Millipore (KinaseProfiler service)
T7 sequence (P31749 whole entry): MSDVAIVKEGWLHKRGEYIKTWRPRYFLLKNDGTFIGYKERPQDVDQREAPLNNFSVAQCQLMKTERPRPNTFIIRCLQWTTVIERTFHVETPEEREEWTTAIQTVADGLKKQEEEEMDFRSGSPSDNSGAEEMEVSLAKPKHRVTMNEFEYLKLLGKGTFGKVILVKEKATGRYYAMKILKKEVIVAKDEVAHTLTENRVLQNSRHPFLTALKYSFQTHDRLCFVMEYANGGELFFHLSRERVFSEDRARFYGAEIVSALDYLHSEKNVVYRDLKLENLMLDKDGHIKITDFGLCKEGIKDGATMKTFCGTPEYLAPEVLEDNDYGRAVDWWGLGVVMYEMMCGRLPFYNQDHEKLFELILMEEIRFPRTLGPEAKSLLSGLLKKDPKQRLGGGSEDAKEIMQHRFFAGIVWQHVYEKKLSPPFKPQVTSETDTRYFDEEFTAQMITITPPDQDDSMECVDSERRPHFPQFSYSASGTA

SAPK2a(h) = target: T8, SAPK2a(h) (Homo sapiens, UniProt Q16539); assay: Kinase screen; type: biochemical; conditions: 0.1% DMSO control = 100%
T8 construct: purchased Millipore (KinaseProfiler Service)
T8 sequence (Q16539 whole entry): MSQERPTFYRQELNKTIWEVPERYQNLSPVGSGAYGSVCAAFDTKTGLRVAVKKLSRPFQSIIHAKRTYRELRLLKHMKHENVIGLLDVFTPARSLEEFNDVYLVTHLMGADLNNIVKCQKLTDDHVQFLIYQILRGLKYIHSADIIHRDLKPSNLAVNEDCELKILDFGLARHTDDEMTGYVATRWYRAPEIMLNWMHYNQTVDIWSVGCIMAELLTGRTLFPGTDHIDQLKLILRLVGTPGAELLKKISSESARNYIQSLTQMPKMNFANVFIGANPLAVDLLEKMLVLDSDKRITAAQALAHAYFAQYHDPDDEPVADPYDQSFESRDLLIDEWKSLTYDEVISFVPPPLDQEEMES

ROCK-I(h) = target: T9, ROCK-I(h) (Homo sapiens, UniProt Q13464); assay: Kinase screen; type: biochemical; conditions: 0.1% DMSO control = 100%
T9 construct: purchased Millipore (KinaseProfiler service)
T9 sequence (Q13464 whole entry): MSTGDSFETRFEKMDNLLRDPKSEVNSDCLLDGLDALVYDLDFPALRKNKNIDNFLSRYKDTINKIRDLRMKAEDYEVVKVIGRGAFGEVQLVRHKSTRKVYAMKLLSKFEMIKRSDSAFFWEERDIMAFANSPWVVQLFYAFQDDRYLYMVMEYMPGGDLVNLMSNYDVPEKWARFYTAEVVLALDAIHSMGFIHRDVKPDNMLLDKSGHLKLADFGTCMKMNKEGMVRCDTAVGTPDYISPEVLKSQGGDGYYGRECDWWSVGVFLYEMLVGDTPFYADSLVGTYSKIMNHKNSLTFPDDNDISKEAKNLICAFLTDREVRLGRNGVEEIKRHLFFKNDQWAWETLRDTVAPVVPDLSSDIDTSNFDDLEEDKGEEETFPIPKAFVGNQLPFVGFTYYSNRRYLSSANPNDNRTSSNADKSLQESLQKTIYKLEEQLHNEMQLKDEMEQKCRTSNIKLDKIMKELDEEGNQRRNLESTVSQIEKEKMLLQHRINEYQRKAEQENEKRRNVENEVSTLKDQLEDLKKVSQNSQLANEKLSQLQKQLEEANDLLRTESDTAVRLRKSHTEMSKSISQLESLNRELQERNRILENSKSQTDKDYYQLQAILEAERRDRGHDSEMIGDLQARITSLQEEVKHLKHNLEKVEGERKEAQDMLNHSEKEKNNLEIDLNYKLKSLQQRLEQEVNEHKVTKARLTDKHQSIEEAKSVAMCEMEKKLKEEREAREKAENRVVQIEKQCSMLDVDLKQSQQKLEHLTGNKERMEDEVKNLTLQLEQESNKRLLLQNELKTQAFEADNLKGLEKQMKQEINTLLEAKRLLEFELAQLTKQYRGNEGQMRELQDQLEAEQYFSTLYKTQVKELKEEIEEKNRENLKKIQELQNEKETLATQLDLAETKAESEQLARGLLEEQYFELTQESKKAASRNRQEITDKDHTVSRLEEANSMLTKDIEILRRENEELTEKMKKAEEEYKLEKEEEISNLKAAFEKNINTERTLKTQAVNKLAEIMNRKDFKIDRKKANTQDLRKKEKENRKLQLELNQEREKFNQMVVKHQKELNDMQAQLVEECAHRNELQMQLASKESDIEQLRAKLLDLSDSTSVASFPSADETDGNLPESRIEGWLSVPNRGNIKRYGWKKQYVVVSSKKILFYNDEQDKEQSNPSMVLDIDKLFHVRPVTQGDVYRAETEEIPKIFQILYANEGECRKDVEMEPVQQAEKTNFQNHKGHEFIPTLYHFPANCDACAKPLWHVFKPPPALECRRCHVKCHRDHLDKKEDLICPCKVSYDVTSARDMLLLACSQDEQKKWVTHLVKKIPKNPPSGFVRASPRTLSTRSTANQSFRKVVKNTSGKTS

PTP-1B(h) = target: T10, PTP-1B(h) (Homo sapiens, UniProt P18031); assay: Phosphatase screen; type: biochemical; conditions: 0.1% DMSO control = 100%
T10 construct: purchased Millipore (KinaseProfiler service)

RPTPm(h) = target: T11, RPTPm(h) (Homo sapiens, UniProt P28827); assay: Phosphatase screen; type: biochemical; conditions: 0.1% DMSO control = 100%
T11 construct: purchased Millipore (KinaseProfiler service)

Hh (Shh) pathway = assay: Shh Light II (Gli1-Luc) reporter assay; conditions: 1 or 10 μM, 48 h, 50% Shh-CM
From the text: 1) a stable reporter line for sonic hedgehog pathway, Shh Light II cells (Glil-Luc-purchased from ATCC and maintained according to suppliers recommendations);

CK1γ1(h) = target: T12, CK1γ1(h) (Homo sapiens, UniProt Q9HCP0); assay: Kinase screen; type: biochemical; conditions: 0.1% DMSO control = 100%
T12 construct: purchased Millipore (KinaseProfiler service)

LMPTP-B(h) = target: T13, LMPTP-B(h) (Homo sapiens, UniProt P24666); assay: Phosphatase screen; type: biochemical; conditions: 0.1% DMSO control = 100%
T13 construct: purchased Millipore (KinaseProfiler service)
T13 sequence (P24666 1-158 isoform P24666-2): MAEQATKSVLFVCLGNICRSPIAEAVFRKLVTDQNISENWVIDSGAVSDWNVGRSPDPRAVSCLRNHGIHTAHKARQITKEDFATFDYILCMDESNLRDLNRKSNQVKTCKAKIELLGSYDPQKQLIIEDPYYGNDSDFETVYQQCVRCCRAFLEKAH

CDK2/cyclinA(h) = target: T14, CDK2/cyclinA(h) (Homo sapiens, UniProt P24941); assay: Kinase screen; type: biochemical; conditions: 0.1% DMSO control = 100%
T14 construct: purchased Millipore (KinaseProfiler service)

Abl(h) = target: T15, Abl(h) (Homo sapiens, UniProt P00519); assay: Kinase screen; type: biochemical; conditions: 0.1% DMSO control = 100%
T15 construct: purchased Millipore (KinaseProfiler service)

[1] = tested on: canonical Wnt signaling activated by β-catenin constructs; assay: ST-Luc reporter in HEK293 cells co-transfected with β-catenin variants; conditions: 10 or 25 μM, 24 h
Protocol: These included full-length β-catenin, β-catenin with point mutations at N-terminal phosphorylation sites (dominant active, da-Cat), N-terminal deletion of β-catenin (ΔN-Cat) as another dominant active form, and β-catenin C-terminal transactivation domain fused to LEF-1 (CLEF) functioning as dominant active LEF-1. Plasmid amounts used for transfections were diminished to nanograms per 48-well plate to obtain a pathway induction in the range of 10-20 fold.
Transfection was performed as described in Example 22, but using β-catenin variants co-transfected in the following plasmid combinations:
1) 0.215 μg SuperTOPFlash+0.02 μg Renilla+0.015 μg β-catenin;
2) 0.23 μg SuperTOPFlash+0.02 μg Renilla+0.2 ng da-Cat (dominant active β-catenin (S33, 37, 41 and 45A mutated);
3) 0.23 μg SuperTOPFlash+0.02 μg Renilla+0.2 ng ΔN-Cat (N-terminal deleted β-catenin; and
4) 0.23 μg SuperTOPFlash+0.02 μg Renilla+0.2 ng CLEF (β-catenin transactivation domain fused to LEF-1).

AMPKα1(h) = target: T16, AMPKα1(h) (Homo sapiens, UniProt Q13131); assay: Kinase screen; type: biochemical; conditions: 0.1% DMSO control = 100%
T16 construct: purchased Millipore (KinaseProfiler service)

PTP MEG1(h) = target: T17, PTP MEG1(h) (Homo sapiens, UniProt P29074); assay: Phosphatase screen; type: biochemical; conditions: 0.1% DMSO control = 100%
T17 construct: purchased Millipore (KinaseProfiler service)

CHK1(h) = target: T18, CHK1(h) (Homo sapiens, UniProt O14757); assay: Kinase screen; type: biochemical; conditions: 0.1% DMSO control = 100%
T18 construct: purchased Millipore (KinaseProfiler service)

MAPKAP-K2(h) = target: T19, MAPKAP-K2(h) (Homo sapiens, UniProt P49137); assay: Kinase screen; type: biochemical; conditions: 0.1% DMSO control = 100%
T19 construct: purchased Millipore (KinaseProfiler service)

DRAK1(h) = target: T20, DRAK1(h) (Homo sapiens, UniProt Q9UEE5); assay: Kinase screen; type: biochemical; conditions: 0.1% DMSO control = 100%
T20 construct: purchased Millipore (KinaseProfiler service)

c-RAF(h) = target: T21, c-RAF(h) (Homo sapiens, UniProt P04049); assay: Kinase screen; type: biochemical; conditions: 0.1% DMSO control = 100%
T21 construct: purchased Millipore (KinaseProfiler service)

[2] = target: T22, PI3 Kinase (p110b/p85a)(h) (Homo sapiens, UniProt P42338); assay: Kinase screen; type: biochemical; conditions: 0.1% DMSO control = 100%
T22 construct: purchased Millipore (KinaseProfiler service)

NEK2(h) = target: T23, NEK2(h) (Homo sapiens, UniProt P51955); assay: Kinase screen; type: biochemical; conditions: 0.1% DMSO control = 100%
T23 construct: purchased Millipore (KinaseProfiler service)

VHR(h) = target: T24, VHR(h) (Homo sapiens, UniProt P51452); assay: Phosphatase screen; type: biochemical; conditions: 0.1% DMSO control = 100%
T24 construct: purchased Millipore (KinaseProfiler service)
T24 sequence (P51452 whole entry): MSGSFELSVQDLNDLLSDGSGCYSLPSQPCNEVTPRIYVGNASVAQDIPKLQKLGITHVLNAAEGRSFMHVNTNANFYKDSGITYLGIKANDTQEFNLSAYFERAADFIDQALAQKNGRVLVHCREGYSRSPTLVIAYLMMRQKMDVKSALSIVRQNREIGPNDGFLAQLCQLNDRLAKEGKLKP

CDK6/cyclinD3(h) = target: T25, CDK6/cyclinD3(h) (Homo sapiens, UniProt Q00534); assay: Kinase screen; type: biochemical; conditions: 0.1% DMSO control = 100%
T25 construct: purchased Millipore (KinaseProfiler service)

[3] = tested on: HeLa (cervical adenocarcinoma) cells; assay: MTS cell growth assay (Example 27); type: cell-based; conditions: 72 h
Protocol: as §1, §2, §3

[4] = tested on: THLE2 (hepatocytes) cells; assay: MTS cell growth assay (Example 27); type: cell-based; conditions: 72 h
Protocol: as §1, §2, §3

MeWo (melanoma) cells = assay: MTS cell growth assay (Example 27); type: cell-based; conditions: 72 h
Protocol: as §1, §2, §3

Lyn(h) = target: T26, Lyn(h) (Homo sapiens, UniProt P07948); assay: Kinase screen; type: biochemical; conditions: 0.1% DMSO control = 100%
T26 construct: purchased Millipore (KinaseProfiler service)
T26 sequence (P07948 whole entry): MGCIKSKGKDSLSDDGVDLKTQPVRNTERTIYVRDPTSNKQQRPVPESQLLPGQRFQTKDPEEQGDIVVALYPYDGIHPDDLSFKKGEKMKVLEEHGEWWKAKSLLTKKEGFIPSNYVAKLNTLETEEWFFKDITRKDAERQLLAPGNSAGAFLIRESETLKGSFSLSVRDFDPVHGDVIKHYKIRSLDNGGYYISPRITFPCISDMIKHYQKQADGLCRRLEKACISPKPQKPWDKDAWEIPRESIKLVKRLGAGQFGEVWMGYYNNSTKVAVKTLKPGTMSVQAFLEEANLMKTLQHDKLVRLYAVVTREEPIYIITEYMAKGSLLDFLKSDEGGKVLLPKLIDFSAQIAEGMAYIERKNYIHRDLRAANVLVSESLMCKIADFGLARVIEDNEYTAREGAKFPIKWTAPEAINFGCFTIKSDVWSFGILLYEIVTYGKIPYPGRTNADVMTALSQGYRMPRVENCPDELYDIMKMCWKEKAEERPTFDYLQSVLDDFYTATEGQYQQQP

## COc1ccc(-n2c(SCc3nc(-c4ccc(C)cc4)no3)nnc2-c2ccncc2)cc1 [Compound 1]
TNF-α pathway
  effect against the TNF-α pathway: no substantial activating or inhibitory effect
MST1(h)
  activity at 10 µM: 106%
CDK7/cyclinH/MAT1(h)
  activity at 10 µM: 108%
SW480 cells
  IC50: ~11.5 µM
TMDP(h)
  activity at 10 µM: 97%
ALK(h)
  activity at 10 µM: 91%
PRAK(h)
  activity at 10 µM: 55%
CaMKI(h)
  activity at 10 µM: 97%
PKBα(h)
  activity at 10 µM: 79%
SAPK2a(h)
  activity at 10 µM: 106%
ROCK-I(h)
  activity at 10 µM: 100%
PTP-1B(h)
  activity at 10 µM: 105%
RPTPm(h)
  activity at 10 µM: 103%
Hh (Shh) pathway
  effect against the Hh (Shh) pathway: no substantial activating or inhibitory effect
CK1γ1(h)
  activity at 10 µM: 100%
LMPTP-B(h)
  activity at 10 µM: 100%
CDK2/cyclinA(h)
  activity at 10 µM: 106%
Abl(h)
  activity at 10 µM: 93%
[1]
  activation of canonical Wnt signaling by full-length β-catenin: reduced
  activation of the pathway by CLEF: not significantly antagonized
  activation of the pathway by da-Cat: not significantly antagonized
  activation of the pathway by ΔN-Cat: not significantly antagonized
AMPKα1(h)
  activity at 10 µM: 95%
PTP MEG1(h)
  activity at 10 µM: 92%
CHK1(h)
  activity at 10 µM: 106%
MAPKAP-K2(h)
  activity at 10 µM: 85%
DRAK1(h)
  activity at 10 µM: 116%
c-RAF(h)
  activity at 10 µM: 98%
[2]
  activity at 10 µM: 94%
NEK2(h)
  activity at 10 µM: 94%
VHR(h)
  activity at 10 µM: 103%
CDK6/cyclinD3(h)
  activity at 10 µM: 94%
[3]
  growth reduction: only a minor growth reduction
[4]
  growth reduction: only a minor growth reduction
MeWo (melanoma) cells
  growth reduction: only a minor growth reduction
Lyn(h)
  activity at 10 µM: 109%
